Here are results for 1 compound from US20050049282A1, “Process” (priority 2001, published 2005).

Structures are written as SMILES.

Data set [1] in a line: Stability of omeprazole in alcoholic solution under chromatographic conditions. It counts as physicochemical. The settings on record: methanol with addition of 0.1% diethylamine. The source says: It has previously been reported that alcoholic solution of omeprazole is not stable in room temperature and in daylight. There is thus a risk that one or several decomposition products might co-elute with one of the enantiomers.

For data set [2] the following is noted: room temperature and daylight; cited from earlier work.

As to `COc1ccc2[nH]c([S+]([O-])Cc3ncc(C)c(OC)c3C)nc2c1` (racemic) [omeprazole, 5-methoxy-2-[[(4-methoxy-3,5-dimethyl-2-pyridinyl)methyl]sulfinyl]-1H-benzimidazole], the “stability of solution in methanol” value in data set [1] is recorded as “stabilizes a solution of omeprazole in methanol to a sufficient degree”. Further, the “stability of alcoholic solution” value in data set [2] was “not stable”.
